The values that follow come from US9790207B2, “Pan-genomic inhibitors of NS5A protein encoded by HCV, pharmaceutical compositions, intermediates for inhibitor synthesis, and their synthesis and application methods” (priority 2015, dated 2017).

In one data set the test system is HCV gT1b replicon. Briefly: HCV replicon assay, gT1b. The class given is cell-based, Hepatitis C virus (HCV). The note with it: Hepatitis C virus, GT1B, Huh-7, Huh7 replicon cells, mean value. As to the method: (§1) The HCV replicon assay was used to determine the antiviral activity of compounds of general formula 2 (test compounds). The test cell line used in the HCV Replicon Assay was the human hepatoma cell line Huh7 incorporating the HCV replicons synthesized by an outside vendor.
(§2) 96-well plates were seeded with cells at a density of 7.5×10^3 cells per well in 50 μl of assay media. The compound stock solution was made up freshly in an assay medium (DMEM 1×, Cellgro; cat. #10-013-CV) as a 2× stock. A total of 11 serial 3-fold dilutions of test compounds were prepared from the 2× stock in the assay media ranging from 20 nM-0.2 pM final concentrations. At least 4 hours after seeding the cells, compound treatment was initiated by adding 50 μl of compound dilution to the plates. The final concentrations of compound therefore ranged from 10 nM to 0.1 pM when diluted 1:1 in culture media. The final DMSO concentration was 0.5%. Cells and inhibitors were incubated for 3 days at 37° C./5% CO2. The media was removed from the plates by gentle tapping. The cells were fixed with 100 μl 1:1 acetone:methanol for 1 minute, washed three times with PBS buffer, and then blocked with 150 μl/well 10% Fetal Bovine Serum (FBS) in PBS for 1 hour at room temperature. The cells were then washed three times with PBS buffer and incubated with 100 μl/well anti-hepatitis C core mAb (Affinity BioReagents; cat. # MA1-080, 1 mg/ml stock diluted 1:4,000 in 10% FBS-PBS) for 2 hours at 37° C. Then, the cells were washed three times with PBS and incubated with 100 μl/well HRP-Goat Anti-Mouse antibody (diluted 1:3.500 in 10% FBS-PBS) for 1 hour at 37° C. The cells were then washed three times with PBS and developed with an OPD solution, 100 μl/well (1 OPD tablet+12 ml citrate/phosphate buffer+5 μl 30% H2O2 per plate), for 30 minutes in the dark at room temperature. The reaction was stopped with 2N H2SO4 (100 μl/well), and the absorbance was measured at A490 X on a Victor^3 V 1420 multilabel counter (Perkin Elmer).

In another data set the test system is HCV gT1a replicon. Briefly: HCV replicon assay, gT1a. The data set is classed as cell-based, Hepatitis C virus (HCV). The note with it: Hepatitis C virus, GT1A, Huh-7; Huh7 replicon cells; mean. As to the method:
as §1, §2

The next data set concerns HCV gT3a replicon. Briefly: HCV replicon assay, gT3a. The class given is cell-based, Hepatitis C virus (HCV). The note with it: Hepatitis C virus, GT3A. As to the method:
as §1, §2

The next data set concerns HCV gT5a replicon. Briefly: HCV replicon assay, gT5a. The data set is classed as cell-based, Hepatitis C virus (HCV). The note with it: Hepatitis C virus, GT5A, Huh-7, read-out: gT5a, EC50 (pM) mean. How it is done:
as §1, §2

Data set [1] in a line: Cytotoxicity, cell viability by ATPLite Kit. The note with it: human, Huh7 cells (human hepatoma cell line), 10% FBS, maximal inhibition, read-out: Cytotox gT1b 10% FBS max. inh. The class given is cell-based, human. How it is done:
The cytotoxicity of the test compounds was studied in parallel using the same cell line, Huh7. Cell viability was determined using the ATPLite Kit (Perkin-Elmer, Boston, USA), according to manufacturer's instructions. 96-well black/transparent bottom plates were seeded with cells at a density of 7.5×10^3 cells per well in 50 μl medium. After 18 hours, compound treatment was initiated by adding 50 μl of compound dilution into the plates. Each compound dilution was tested in triplicates. The cells and inhibitors were then incubated for 96 hours at 37° C./5% CO2. The plates were washed twice with PBS (0.2 ml/well), and then lysed by adding lysis buffer, 0.05 ml/well (all reagents were included with the ATPLite Kit). After rocking for 5 min on a rocking platform, substrate buffer was added (0.05 ml/well). After additional 5-min incubation, the plates were kept in dark for 10 min, and the luminescence was read using TopCount NXT (Packard, Perkin Elmer). CC50 values for all test compounds were determined using XLfit 4.1 software (Table 2).

The test system of a further data set is HCV gT2a replicon. Briefly: HCV replicon assay, gT2a. The note with it: Hepatitis C virus, GT2A, Huh-7; Huh7 replicon cells; mean. The class given is cell-based, Hepatitis C virus (HCV). How it is done: as §1, §2
Another data set deals with HCV gT4a replicon. Briefly: HCV replicon assay, gT4a. The note with it: Hepatitis C virus, GT4A, Huh-7, read-out: gT4a, EC50 (pM) mean. The class given is cell-based, Hepatitis C virus (HCV). How it is done: as §1, §2
Where [2] appears, read: 10% FBS, read-out: gT1b 10% FBS, EC50 (pM) mean.
Setting [3] is: 40% NHS, read-out: gT1b 40% NHS, EC50 (pM) mean.
The mark [4] stands for this setting: Huh-7, Huh7 replicon cells, mean, read-out: gT3a, EC50 (pM) mean.

Molecules are shown by their SMILES. Structures can show the parent of a compound that is named as a salt. Where two headings read alike, the source gives them in different places.

As to `COC(=O)N[C@H](C(=O)N1CCC[C@H]1c1ncc(-c2cc(F)c(C#CC#Cc3cnc([C@@H]4CCCN4C(=O)[C@H](NC(=O)OC)c4ccccc4)[nH]3)c(-c3ccccc3)c2)[nH]1)C(C)C` [2(17)•2HCl, [(S)-1-((S)-2-{5-[5-Fluoro-6-(4-{2-[(S)-1-((R)-2-methoxycarbonylamino-2-phenyl-acetyl)-pyrrolidin-2-yl]-3H-imidazol-4-yl}-buta-1,3-diynyl)-biphenyl-3-yl]-1H-imidazol-2-yl}-pyrrolidine-1-carbonyl)-2-methyl-propyl]-carbamic acid methyl ester dihydrochloride], the EC50 is 1.36 pM in the data set with HCV gT1b replicon (setting [2]); 9.18 pM in the data set on HCV gT1b replicon (setting [3]); 50.8 pM with HCV gT1a replicon; 20.1 pM in the data set on HCV gT3a replicon (setting [4]); 26 pM in the data set on HCV gT5a replicon; 5 pM in the data set on HCV gT2a replicon. In addition, the EC50 in the data set with HCV gT4a replicon stood at 11.8 pM. Besides, the inhibition at 96 h in data set [1] came to 22%.

Consider `COC(=O)N[C@H](C(=O)N1CCC[C@H]1c1ncc(-c2cc(C)c(C#CC#Cc3cnc([C@@H]4CCCN4C(=O)[C@H](NC(=O)OC)c4ccccc4)[nH]3)c(-c3ccccc3)c2)[nH]1)C(C)C` [2(18)•2HCl, [(S)-1-((S)-2-{5-[6-(4-{2-[(S)-1-((R)-2-Methoxycarbonylamino-2-phenyl-acetyl)-pyrrolidin-2-yl]-3H-imidazol-4-yl}-buta-1,3-diynyl)-5-methyl-biphenyl-3-yl]-1H-imidazol-2-yl}-pyrrolidine-1-carbonyl)-2-methyl-propyl]-carbamic acid methyl ester dihydrochloride], for which the EC50 stood at 1.89 pM in the data set on HCV gT1b replicon (setting [2]); 10.9 pM with HCV gT1b replicon (setting [3]); 124 pM with HCV gT1a replicon; 26 pM in the data set on HCV gT3a replicon (setting [4]); 19.2 pM with HCV gT5a replicon; 3 pM with HCV gT2a replicon. Besides, the EC50 in the data set on HCV gT4a replicon is 9.6 pM. The inhibition at 96 h in data set [1] was found to be 12%.

With `COC(=O)N[C@H](C(=O)N1CCC[C@H]1c1ncc(-c2ccc(C#CC#Cc3cnc([C@@H]4CCCN4C(=O)[C@H](NC(=O)OC)c4ccccc4)[nH]3)c(Oc3ccccc3)c2)[nH]1)C(C)C` [2(19)•2HCl, [(S)-1-((S)-2-{5-[4-(4-{2-[(S)-1-((R)-2-Methoxycarbonylamino-2-phenyl-acetyl)-pyrrolidin-2-yl]-3H-imidazol-4-yl}-buta-1,3-diynyl)-3-phenoxy-phenyl]-1H-imidazol-2-yl}-pyrrolidine-1-carbonyl)-2-methyl-propyl]-carbamic acid methyl ester dihydrochloride], the EC50 was 1.53 pM in the data set with HCV gT1b replicon (setting [2]); 8.41 pM in the data set on HCV gT1b replicon (setting [3]); 214 pM in the data set with HCV gT1a replicon; 40.3 pM in the data set on HCV gT3a replicon (Huh-7, read-out: gT3a, EC50 (pM) mean, Huh7 replicon cells); 18.8 pM in the data set on HCV gT5a replicon; 12.6 pM with HCV gT2a replicon. For the same molecule, in the data set on HCV gT4a replicon, the concentration for a half-maximal effect (EC50) turned out to be 6 pM. Besides, in data set [1], the inhibition at 96 h came to 38%.

Consider `COC(=O)N[C@H](C(=O)N1CCC[C@H]1c1ncc(-c2ccc(C#CC#Cc3cnc([C@@H]4CCCN4C(=O)[C@H](NC(=O)OC)c4ccccc4)[nH]3)c(Sc3ccccc3)c2)[nH]1)C(C)C` [2(20)•2HCl, [(S)-1-((S)-2-{5-[4-(4-{2-[(S)-1-((R)-2-Methoxycarbonylamino-2-phenyl-acetyl)-pyrrolidin-2-yl]-3H-imidazol-4-yl}-buta-1,3-diynyl)-3-phenylsulfanyl-phenyl]-1H-imidazol-2-yl}-pyrrolidine-1-carbonyl)-2-methyl-propyl]-carbamic acid methyl ester dihydrochloride], for which the EC50 in the data set on HCV gT1b replicon (setting [2]) turned out to be 1.7 pM; in the data set with HCV gT1b replicon (setting [3]) it was 9.02 pM. In addition, the inhibition at 96 h in data set [1] was found to be 43%.

Take `COC(=O)N[C@H](C(=O)N1CCC[C@H]1c1ncc(-c2ccc(C#CC#Cc3cnc([C@@H]4CCCN4C(=O)[C@H](NC(=O)OC)c4ccccc4)[nH]3)c(N(C)c3ccccc3)c2)[nH]1)C(C)C` [2(21)•2HCl, [(S)-1-((S)-2-{5-[4-(4-{2-[(S)-1-((R)-2-Methoxycarbonylamino-2-phenyl-acetyl)-pyrrolidin-2-yl]-3H-imidazol-4-yl}-buta-1,3-diynyl)-3-(methyl-phenyl-amino)-phenyl]-1H-imidazol-2-yl}-pyrrolidine-1-carbonyl)-2-methyl-propyl]-carbamic acid methyl ester trihydrochloride]: the EC50 was 1.79 pM in the data set with HCV gT1b replicon (setting [2]); 14.2 pM in the data set with HCV gT1b replicon (setting [3]); 72 pM in the data set on HCV gT1a replicon; 35.1 pM with HCV gT3a replicon (setting [4]); 26.6 pM in the data set with HCV gT5a replicon; 10.6 pM in the data set with HCV gT2a replicon. Moreover, the EC50 with HCV gT4a replicon came out at 11 pM. In addition, the inhibition at 96 h in data set [1] amounted to 14%.

As for `COC(=O)N[C@H](C(=O)N1CCC[C@H]1c1ncc(-c2ccc(-c3ccc(-c4cnc([C@@H]5CCCN5C(=O)[C@H](NC(=O)OC)c5ccccc5)[nH]4)cc3)c(-c3ccccc3)c2)[nH]1)C(C)C` [2(22)•2HCl, ((S)-1-{(S)-2-[5-(4-{2-[(S)-1-((R)-2-Methoxycarbonylamino-2-phenyl-acetyl)-pyrrolidin-2-yl]-3H-imidazol-4-yl}-[1,1′;2′,1″]terphenyl-4′-yl)-1H-imidazol-2-yl]-pyrrolidine-1-carbonyl}-2-methyl-propyl)-carbamic acid methyl ester dihydrochloride], the EC50 is 2.58 pM with HCV gT1b replicon (setting [2]); 38.8 pM in the data set on HCV gT1b replicon (setting [3]); 117 pM in the data set with HCV gT1a replicon; 16.6 pM with HCV gT3a replicon (setting [4]); 31.3 pM in the data set on HCV gT5a replicon; 3.9 pM with HCV gT2a replicon. Further, the EC50 with HCV gT4a replicon stood at 9.4 pM. In addition, in data set [1], the inhibition at 96 h amounted to 30%.

In the case of `COC(=O)N[C@H](C(=O)N1CCC[C@H]1c1ncc(-c2ccc(-c3ccc(-c4cnc([C@@H]5CCCN5C(=O)[C@H](NC(=O)OC)c5ccccc5)[nH]4)cc3)c(Oc3ccccc3)c2)[nH]1)C(C)C` [2(23)•2HCl, ((S)-1-{(S)-2-[5-(4′-{2-[(S)-1-((R)-2-Methoxycarbonylamino-2-phenyl-acetyl)-pyrrolidin-2-yl]-3H-imidazol-4-yl}-2-phenoxy-biphenyl-4-yl)-1H-imidazol-2-yl]-pyrrolidine-1-carbonyl}-2-methyl-propyl)-carbamic acid methyl ester dihydrochloride], the EC50 stood at 2.1 pM with HCV gT1b replicon (setting [2]); 15.7 pM in the data set with HCV gT1b replicon (setting [3]); 154 pM with HCV gT1a replicon; 10.3 pM with HCV gT3a replicon (setting [4]); 13.6 pM in the data set on HCV gT5a replicon; 4.1 pM in the data set with HCV gT2a replicon. Moreover, in the data set with HCV gT4a replicon, the half-maximal effective concentration (EC50) is 5.4 pM. Besides, the inhibition at 96 h in data set [1] was 27%.

With `COC(=O)N[C@H](C(=O)N1CCC[C@H]1c1ncc(C#CC#Cc2ccc(-c3cnc([C@@H]4CCCN4C(=O)[C@H](NC(=O)OC)c4ccccc4)[nH]3)cc2-c2ccccc2)[nH]1)C(C)C` [2(30)•2HCl, [(S)-1-((S)-2-{5-[4-(5-{2-[(S)-1-((R)-2-Methoxycarbonylamino-2-phenyl-acetyl)-pyrrolidin-2-yl]-3H-imidazol-4-yl}-biphenyl-2-yl)-buta-1,3-diynyl]-1H-imidazol-2-yl}-pyrrolidine-1-carbonyl)-2-methyl-propyl]-carbamic acid methyl ester dihydrochloride], the EC50 stood at 2.1 pM in the data set with HCV gT1b replicon (setting [2]) and 25.3 pM in the data set with HCV gT1b replicon (setting [3]). Also, the inhibition at 96 h in data set [1] worked out at 33%.
